Assay results reported in US12509460B2 (Skyhawk Therapeutics, Inc., priority 2019, dated 2025).
Read-outs that look alike come from different tables or passages of the source.

Assays:
[1] = test system: mHTT protein in GM04724 (CAG 70/20) Huntington's disease patient lymphoblast cells; test: mHTT protein assay, 2B7-MW1 assay via Mesoscale Discovery (MSD); format: cell-based, human
Experimental: Example A10: mHTT Protein Assay
Compounds are tested on GM04724 (CAG 70/20) Huntington's disease patient lymphoblast cells at doses ranging from 10 μM to 0.6 nM. 4,500 cells/well are seeded in 384 well plates. One plate replica is carried out for parallel viability testing by CellTiter Glo (CTG). Compounds are incubated for 48 hours. mHTT protein levels are assessed by the 2B7-MW1 assay via Mesoscale Discovery (MSD) as previously reported (Macdonald et al., 2014). The antibody pair is comprised of previously characterized monoclonals (2B7 and MW1) interrogating two regions for HTT conformation and biological properties: the N, 17 domain and the polyQ domain (Baldo et al., 2012; Ko et., 2001). 2B7-MW1 is […] specific levels of HTT at the time of treatment. 2B7-MW1 is dependent on polyQ expansion (e.g., the higher the expansion the higher the signal) and on mHTT size (e.g., a similar polyQ will give higher signal with smaller HTT size). The viability readout is carried out by CTG according to the manufacturer's instructions.

[2] = test system: SMN FL and SMN Δ7 in spinal muscular atrophy (SMA) patient fibroblasts (GM03813, Coriell); test: Quantitative splicing assay (SMN), qPCR; format: cell-based, human; conditions: read-out: SMN2 Splicing FL EC50
Experimental: Spinal muscular atrophy (SMA) patient fibroblasts (GM03813, Coriell) are plated in 96-well plates at 50,000 cells/well. […] Treated cells are lysed and cDNA synthesized using the Fast Advanced Cells-to-Ct kit (Thermofisher A35378) according to the manufacturer's instructions. 2 μL of each cDNA are used in qPCR reactions. […] Reactions are run in a Quant Studio 6 qPCR instrument with default settings.

[3] = test system: SMN protein in spinal muscular atrophy (SMA) patient fibroblasts (GM03813, Coriell); test: SMN protein assay, Mesoscale Discovery (MSD); format: cell-based, human; conditions: read-out: SMN2 protein EC50
Experimental: Example A12: SMN Protein Assay
Compounds are tested on spinal muscular atrophy (SMA) patient fibroblasts (GM03813, Coriell) at doses ranging from 2.5 μM to 0.6 nM. 7000 cells/well are seeded in 96-well plates. Compounds are incubated for 48 hours and the cells were lysed with 100 μL of lysis buffer. 20 μL of lysate is used for SMN protein measurement by Mesoscale Discovery (MSD) assay developed by PharmOptima (Michigan). A standard curve prepared with SMN protein ranging from 1 μg/ml to 19.5 pg/ml is used in each MSD plate to calculate the absolute SMN protein amount in each sample.

MDR1 (P-gp) [4] = test: Blood-brain-barrier (BBB) penetration potential via MDCK-MDR1 permeability assay; conditions: dog; for efflux ratio at 120 min, 5 μM: MDCK-MDR1, pH 7.4, MDCK-MDR1: Efflux; for Papp A→B at 120 min, 5 μM: MDCK-MDR1, pH 7.4, MDCK-MDR1: Papp A-B; for Papp B→A at 120 min, 5 μM: MDCK-MDR1, pH 7.4, MDCK-MDR1: Papp B-A
[5] = test system: MDR1-MDCK cell monolayers; test: as above
[6] = test system: MDR1-MDCK cell monolayers; conditions: dog, MDCK-MDR1, 120 min, 5 μM, pH 7.4
MDR1 (P-gp) [7] = test: in vitro; conditions: dog, MDCK-MDR1, pH 7.4
MDR1 = test: Blood-brain-barrier (BBB) penetration potential via MDCK-MDR1 permeability assay; conditions: dog, MDCK-MDR1, pH 7.4, MDCK-MDR1: Efflux, efflux ratio
[8] = GM04724 (CAG 70/20) Huntington's disease patient lymphoblasts
[9] = Homo sapiens, Fibroblast, 24 h, SMA patient fibroblasts (GM03813), 24 h
[10] = SMA patient fibroblasts (GM03813), 48 hours
[11] = GM04724 Huntington's disease patient lymphoblasts
[12] = Homo sapiens, Fibroblast, 24 h, SMA patient fibroblasts GM03813, 24 h, qPCR
[13] = SMA patient fibroblasts GM03813, 48 hours, MSD

Compound	EC50 [1, 11]	EC50 [3, 13]	Papp A→B at 120 min, 5 μM (MDR1 (P-gp) [4]; A-B direction)	Papp B→A at 120 min, 5 μM (MDR1 (P-gp) [4]; B-A direction)	MDCK-MDR1: % Recov A-B ([5]; A-B direction)	MDCK-MDR1: % Recov B-A ([5]; B-A direction)	efflux ratio at 120 min, 5 μM (MDR1)	also measured
CN(c1ccc(-c2cc3cnccc3cc2O)nn1)[C@@H]1C[C@H]2CC(F)(F)[C@@H](C1)N2 [Compound 126A, 7-(6-(((1S,3R,5R)-6,6-difluoro-8-azabicyclo[3.2.1]octan-3-yl)(methyl)amino)pyridazin-3-yl)isoquinolin-6-ol]	–	–	–	–	–	–	–	EC50 [1, 8]: 51 to 100 nM; EC50 [2, 9]: 16 to 50 nM; EC50 [3, 10]: 0.01 to 15 nM; efflux ratio at 120 min, 5 μM (MDR1 (P-gp) [4]): 3; Papp A→B at 120 min, 5 μM (MDR1 (P-gp) [4]; A-B): 137 nm/s; Papp B→A at 120 min, 5 μM (MDR1 (P-gp) [4]; B-A): 353 nm/s; MDCK-MDR1: % Recov A-B ([5]; A-B): 80%; MDCK-MDR1: % Recov B-A ([5]; B-A): 92%
CN(c1ccc(-c2cc3cnccc3cc2O)nn1)[C@H]1C[C@@H]2CC(F)(F)[C@H](C1)N2 [Compound 126B, 7-(6-(((1R,3S,5S)-6,6-difluoro-8-azabicyclo[3.2.1]octan-3-yl)(methyl)amino)pyridazin-3-yl)isoquinolin-6-ol]	–	–	–	–	–	–	–	mHTT protein EC50 [1, 8]: E (501 ≤ E ≤ 10.000); EC50 [3, 10]: 101 to 500 nM; MDCK-MDR1: % Recov A-B [6]: 75%; MDCK-MDR1: % Recov B-A [6]: 88%; Papp A→B at 120 min, 5 μM (MDR1 (P-gp) [7]): 126 nm/s; Papp B→A at 120 min, 5 μM (MDR1 (P-gp) [7]): 394 nm/s; efflux ratio at 120 min, 5 μM (MDR1 (P-gp) [7]): 3
CN(c1ccc(-c2cc3ncccc3cc2O)nn1)[C@H]1C[C@@H]2CC(F)(F)[C@H](C1)N2 [Compound 46B, 7-(6-(((1R,3S,5S)-6,6-difluoro-8-azabicyclo[3.2.1]octan-3-yl)(methyl)amino)pyridazin-3-yl)quinolin-6-ol]	101 to 500 nM	16 to 50 nM	320 nm/s	316 nm/s	68%	86%	–	EC50 [2, 12]: 101 to 500 nM; efflux ratio at 120 min, 5 μM (MDR1 (P-gp) [4]; efflux ratio): 1
CN(c1ccc(-c2cc(F)c(-c3ccn(C)c(=O)c3)cc2O)nn1)[C@@H]1C[C@H]2CC(F)(F)[C@@H](C1)N2 [Compound 22A, 4-(4-(6-(((1S,3R,5R)-6,6-difluoro-8-azabicyclo[3.2.1]octan-3-yl)(methyl)amino)pyridazin-3-yl)-2-fluoro-5-hydroxyphenyl)-1-methylpyridin-2(1H)-one]	–	0.01 to 15 nM	18.2 nm/s	809 nm/s	86%	94%	45	EC50 [2, 12]: 0.01 to 15 nM
CN(c1ccc(-c2cc3ncccc3cc2O)nn1)[C@@H]1C[C@H]2CC(F)(F)[C@@H](C1)N2 [Compound 46A, 7-(6-(((1S,3R,5R)-6,6-difluoro-8-azabicyclo[3.2.1]octan-3-yl)(methyl)amino)pyridazin-3-yl)quinolin-6-ol]	16 to 50 nM	16 to 50 nM	317 nm/s	292 nm/s	68%	89%	–	EC50 [2, 12]: 501 to 10000 nM; efflux ratio at 120 min, 5 μM (MDR1 (P-gp) [4]; efflux ratio): 1
CN(c1ccc(-c2cc3cnccc3cc2O)nn1)[C@@H]1C[C@H]2CC[C@H](N2)[C@@H]1F (single isomer, unassigned) [Compound 7B]	51 to 100 nM	0.01 to 15 nM	–	–	69%	89%	–	EC50 ([2]; SMA patient fibroblasts GM03813, 24 h, qPCR): 51 to 100 nM; MDCK-MDR1: Papp A-B ([5]; A-B direction): 4.27 10^−6, cm/s; MDCK-MDR1: Papp B-A ([5]; B-A direction): 36.1 10^−6, cm/s; MDCK-MDR1: Efflux ([5]; efflux ratio): 8
COc1cn(-c2ccc(-c3ccc(N(C)[C@H]4C[C@@H]5CC(F)(F)[C@H](C4)N5)nn3)c(O)c2)cn1 [Compound 19B, 2-(6-(((1R,3S,5S)-6,6-difluoro-8-azabicyclo[3.2.1]octan-3-yl)(methyl)amino)pyridazin-3-yl)-5-(4-methoxy-1H-imidazol-1-yl)phenol]	–	51 to 100 nM	122 nm/s	633 nm/s	91%	88%	5	mHTT protein EC50 [1, 11]: E (501 ≤ E ≤ 10.000)
CN(c1ccc(-c2ccc(-n3cnc(Cl)c3)cc2O)nn1)[C@H]1C[C@@H]2CC(F)(F)[C@H](C1)N2 [Compound 37B, 5-(4-chloro-1H-imidazol-1-yl)-2-(6-(((1R,3S,5S)-6,6-difluoro-8-azabicyclo[3.2.1]octan-3-yl)(methyl)amino)pyridazin-3-yl)phenol]	51 to 100 nM	101 to 500 nM	190 nm/s	327 nm/s	54%	70%	2	–
CN(c1ccc(-c2cc3ccncc3cc2O)nn1)[C@H]1C[C@@H]2CC(F)(F)[C@H](C1)N2 [Compound 125B, 6-(6-(((1R,3S,5S)-6,6-difluoro-8-azabicyclo[3.2.1]octan-3-yl)(methyl)amino)pyridazin-3-yl)isoquinolin-7-ol]	–	–	–	–	–	–	–	EC50 [1, 8]: 51 to 100 nM; EC50 [2, 9]: 16 to 50 nM; EC50 [3, 10]: 16 to 50 nM; efflux ratio at 120 min, 5 μM (MDR1 (P-gp) [4]): 3; Papp A→B at 120 min, 5 μM (MDR1 (P-gp) [4]; A-B): 156 nm/s; Papp B→A at 120 min, 5 μM (MDR1 (P-gp) [4]; B-A): 532 nm/s; MDCK-MDR1: % Recov A-B ([5]; A-B): 67%; MDCK-MDR1: % Recov B-A ([5]; B-A): 81%
CC(=O)N(C)c1ccc(-c2ccc(N(C)[C@H]3C[C@@H]4CC[C@@H](N4)[C@H]3F)nn2)c(O)c1 [Compound 35B, N-(4-(6-(((1R,2R,3S,5S)-2-fluoro-8-azabicyclo[3.2.1]octan-3-yl)(methyl)amino)pyridazin-3-yl)-3-hydroxyphenyl)-N-methylacetamide]	–	0.01 to 15 nM	2.3 nm/s	420 nm/s	103%	99%	181	mHTT protein EC50 [1, 11]: E (501 ≤ E ≤ 10.000)
CN(c1ccc(-c2ccc(C#N)cc2O)nn1)[C@H]1C[C@@H]2CCC[C@@H](N2)[C@H]1F [Compound 39B, 4-(6-(((1R,2R,3S,5S)-2-fluoro-9-azabicyclo[3.3.1]nonan-3-yl)(methyl)amino)pyridazin-3-yl)-3-hydroxybenzonitrile]	101 to 500 nM	16 to 50 nM	45.7 nm/s	406 nm/s	96%	86%	9	–
CN(c1ccc(-c2cc3cncnc3cc2O)nn1)[C@@H]1C[C@H]2CC[C@H](N2)[C@@H]1F [Compound 75A, 6-(6-(((1S,2S,3R,5R)-2-fluoro-8-azabicyclo[3.2.1]octan-3-yl)(methyl)amino)pyridazin-3-yl)quinazolin-7-ol]	101 to 500 nM	51 to 100 nM	23.1 nm/s	503 nm/s	101%	100%	22	–
CN(c1ccc(-c2cc3cnccc3cc2O)nn1)[C@H]1C[C@@H]2CC[C@H]([C@H]1F)N2C [Compound 93B, 7-(6-(((1R,2R,3S,5S)-2-fluoro-8-methyl-8-azabicyclo[3.2.1]octan-3-yl)(methyl)amino)pyridazin-3-yl)isoquinolin-6-ol]	101 to 500 nM	51 to 100 nM	53.9 nm/s	223 nm/s	45%	63%	4	–
